The values below come from ChEMBL document CHEMBL1134078, “Structure-based design, synthesis and SAR of a novel series of thiopheneamidine urokinase plasminogen activator inhibitors” (Bioorg Med Chem Lett, 2001).

Bounds are passed on as bounds.

The target in assay [1] is Urokinase-type plasminogen activator (Homo sapiens, UniProt P00749).
In the next assay the target is Serine protease 1 (Homo sapiens, UniProt P07477). Put plainly: Inhibitory activity against Trypsin.
For a further assay, the target named is Prothrombin (Homo sapiens, UniProt P00734). The assay is described as follows: Inhibitory activity against Thrombin (no observable inhibition at this screening concentration).
Assay [2] addresses Tissue-type plasminogen activator (Homo sapiens, UniProt P00750). The assay is described as follows: Inhibitory activity against tissue plasminogen activator.
In another assay the target is Plasminogen (Homo sapiens, UniProt P00747). Put plainly: Inhibitory activity against plasmin.
Chain of Plasminogen (P00747 97-580 limits assumed): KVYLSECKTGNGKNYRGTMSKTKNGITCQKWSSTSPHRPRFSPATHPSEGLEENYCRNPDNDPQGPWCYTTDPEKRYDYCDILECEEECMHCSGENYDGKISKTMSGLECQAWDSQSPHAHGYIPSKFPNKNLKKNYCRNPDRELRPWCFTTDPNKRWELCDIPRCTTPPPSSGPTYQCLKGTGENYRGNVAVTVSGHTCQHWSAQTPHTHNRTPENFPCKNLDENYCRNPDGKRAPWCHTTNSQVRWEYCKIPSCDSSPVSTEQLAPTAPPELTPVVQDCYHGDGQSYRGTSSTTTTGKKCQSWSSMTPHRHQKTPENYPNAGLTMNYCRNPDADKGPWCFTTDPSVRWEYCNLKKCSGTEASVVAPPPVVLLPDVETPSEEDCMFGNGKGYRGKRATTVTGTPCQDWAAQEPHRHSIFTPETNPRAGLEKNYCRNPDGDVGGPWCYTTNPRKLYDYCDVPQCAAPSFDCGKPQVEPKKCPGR
Chain of Plasminogen (P00747 581-810 limits assumed): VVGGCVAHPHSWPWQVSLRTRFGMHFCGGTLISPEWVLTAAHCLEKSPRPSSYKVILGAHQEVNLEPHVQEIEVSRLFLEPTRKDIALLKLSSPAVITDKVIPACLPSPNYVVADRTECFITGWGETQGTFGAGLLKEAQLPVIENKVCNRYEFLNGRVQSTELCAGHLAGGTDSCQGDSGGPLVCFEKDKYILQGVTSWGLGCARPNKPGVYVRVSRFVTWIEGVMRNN

Chain of Tissue-type plasminogen activator (P00750 whole entry): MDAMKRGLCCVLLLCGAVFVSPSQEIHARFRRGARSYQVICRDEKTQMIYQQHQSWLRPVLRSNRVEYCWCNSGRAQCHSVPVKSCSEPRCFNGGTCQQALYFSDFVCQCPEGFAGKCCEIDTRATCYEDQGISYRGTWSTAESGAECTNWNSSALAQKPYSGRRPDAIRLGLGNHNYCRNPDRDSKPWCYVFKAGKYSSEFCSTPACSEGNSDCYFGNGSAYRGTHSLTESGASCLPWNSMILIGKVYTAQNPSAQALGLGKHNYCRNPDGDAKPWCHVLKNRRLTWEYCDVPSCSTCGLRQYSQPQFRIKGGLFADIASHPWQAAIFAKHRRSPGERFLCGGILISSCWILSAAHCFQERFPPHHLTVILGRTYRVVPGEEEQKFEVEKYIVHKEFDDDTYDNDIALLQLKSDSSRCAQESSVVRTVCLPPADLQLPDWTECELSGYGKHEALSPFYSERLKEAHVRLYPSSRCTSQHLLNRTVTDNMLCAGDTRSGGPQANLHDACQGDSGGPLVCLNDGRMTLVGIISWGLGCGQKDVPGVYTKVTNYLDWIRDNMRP
Chain of Serine protease 1 (P07477 whole entry): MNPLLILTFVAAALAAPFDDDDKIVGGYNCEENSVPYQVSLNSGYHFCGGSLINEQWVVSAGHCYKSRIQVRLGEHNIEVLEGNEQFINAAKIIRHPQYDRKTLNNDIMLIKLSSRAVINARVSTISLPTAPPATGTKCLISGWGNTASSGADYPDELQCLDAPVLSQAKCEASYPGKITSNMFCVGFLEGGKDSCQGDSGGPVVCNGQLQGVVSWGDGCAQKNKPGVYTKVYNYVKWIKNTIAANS

As for `CSc1sc(C(=N)N)cc1-c1nc(-c2ccccc2)c(-c2ccccc2)s1`, in assay [1], the affinity corresponds to a Ki of 982 µM.

With `CSc1sc(C(=N)N)cc1-c1nc(-c2ccc3c(c2)CCCC3)cs1`, the Ki – broadly, the dissociation constant of the complex between target and ligand, obtained from inhibition or displacement – in assay [1] came out at 145 µM.

In the case of `CSc1sc(C(=N)N)cc1-c1cccc(-c2ccccc2)c1`, the inhibitory constant (Ki) in assay [1] is > 34 µM.

Turning to `CSc1sc(C(=N)N)cc1-c1nc(-c2ccc3c(c2)OCCCO3)cs1`, in assay [1], affinity was put at a Ki of 100 µM.

On to `CSc1sc(C(=N)N)cc1-c1cccc(-c2ccccc2)n1`, for which the Ki in assay [1] is > 28 µM.

In turn, `COc1ccccc1-c1csc(-c2cc(C(=N)N)sc2SC)n1` came in with a Ki in assay [1] of 130 µM.

`CSc1sc(C(=N)N)cc1-c1ccccc1` gave a Ki in assay [1] of 0.6 µM.

`CSc1sc(C(=N)N)cc1-c1nc(C2CCCCC2)cs1` yielded a Ki in assay [1] of 641 µM.

In assay [1], `CSc1sc(C(=N)N)cc1-c1nc(-c2ccc(Cl)cc2Cl)cs1` came in with a Ki of 287 µM.

On to `CSc1sc(C(=N)N)cc1-c1nc(-c2ccc3c(c2)OCCO3)cs1`, for which the Ki in assay [1] amounted to 108 µM.

Consider `CSc1sc(C(=N)N)cc1-c1nc(C)cs1`, for which, in assay [1], the affinity corresponds to a Ki of 815 µM.

Compound `CSc1sc(C(=N)N)cc1-c1nc(-c2cccc(Br)c2)cs1` came in with a Ki in assay [1] of 442 µM.

Compound `CSc1sc(C(=N)N)cc1-c1nc(-c2cccnc2Cl)cs1` came in with a Ki in assay [1] of 154 µM.

`COc1ccc(-c2csc(-c3cc(C(=N)N)sc3SC)n2)cc1`: the affinity in assay [1], expressed as Ki, was 327 µM.

In assay [1], `CSc1sc(C(=N)N)cc1-c1nc(-c2ccc(Cl)cc2)cs1` showed a Ki of 99 µM.

On to `COc1ccc(-c2csc(-c3cc(C(=N)N)sc3SC)n2)c(OC)c1`, for which the Ki in assay [1] was 152 µM.

The compound `CSc1sc(C(=N)N)cc1-c1nc(-c2cccc(C)c2)cs1` came in with a Ki in assay [1] of 546 µM.

`CSc1sc(C(=N)N)cc1-c1nc(-c2cnccc2Cl)cs1` displayed a Ki in assay [1] of 164 µM.

`CSc1sc(C(=N)N)cc1-c1nc(COc2ccccc2)cs1`: in assay [1], the affinity corresponds to a Ki of 178 µM.

Take `CSc1sc(C(=N)N)cc1-c1nc(-c2cccc(O)c2)cs1`: the Ki is 0.93 µM at Serine protease 1; > 25 µM at Prothrombin; 1.7 µM in assay [2]; 32.1 µM on Plasminogen; 86 µM in assay [1].

In assay [1], `CSc1sc(C(=N)N)cc1-c1nc(-c2csc3ccccc23)cs1` came in with a Ki of 141 µM.

As to `CSc1ccc(C(=N)N)s1`, the Ki in assay [1] came out at 6 µM.

For the compound `CSc1sc(C(=N)N)cc1-c1nc(-c2ccccc2C)cs1`, the Ki in assay [1] came out at 277 µM.

As for `COC(=O)COc1cccc(-c2csc(-c3cc(C(=N)N)sc3SC)n2)c1`, affinity in assay [1] was put at a Ki of 44 µM.

Regarding `CSc1sc(C(=N)N)cc1-c1nc(-c2ccc([N+](=O)[O-])cc2)cs1`, the Ki in assay [1] was determined as 270 µM.

On to `CSc1sc(C(=N)N)cc1-c1nc(-c2cccc(NC(=O)c3ccc(F)cc3)c2)cs1`, for which the Ki in assay [1] is 47 µM.

In turn, `CSc1sc(C(=N)N)cc1-c1nc(-c2ccnc(Cl)c2)cs1` returned a Ki in assay [1] of 120 µM.

With `COc1cccc(-c2csc(-c3cc(C(=N)N)sc3SC)n2)c1`, the Ki on Serine protease 1 was 0.86 µM; on Prothrombin it was > 30 µM; in assay [2], 1.9 µM; on Plasminogen it was 6.9 µM; in assay [1], 115 µM.

In assay [1], `CSc1sc(C(=N)N)cc1-c1nc(-c2ccc(S(=O)(=O)Nc3ccc(C)cc3)cc2)cs1` showed a Ki of 272 µM.

`CSc1sc(C(=N)N)cc1-c1nc(-c2ccccc2)c(C)s1` had a Ki in assay [1] of 305 µM.

In assay [1], `CSc1sc(C(=N)N)cc1-c1nc(-c2ccc3ccccc3c2)cs1` came in with a Ki of 138 µM.

As for `CSc1sc(C(=N)N)cc1-c1nc(-c2ccc(C)cc2)cs1`, the Ki in assay [1] was 94 µM.

Regarding `CSc1sc(C(=N)N)cc1-c1nc(-c2ccc(NS(C)(=O)=O)cc2)cs1`, in assay [1], the Ki was 94 µM.

On to `CSc1sc(C(=N)N)cc1-c1nc(-c2ccc3c(c2)OCO3)cs1`, for which the Ki on Serine protease 1 is 0.88 µM; at Prothrombin, > 29 µM; in assay [2], 1.7 µM; on Plasminogen, 10.8 µM; in assay [1], 91 µM.

Take `CSc1sc(C(=N)N)cc1-c1nc(-c2ccc(Cl)c([N+](=O)[O-])c2)cs1`: the Ki in assay [1] is 161 µM.

As to `CSc1sc(C(=N)N)cc1-c1nc(-c2ccc(-c3ccccc3)cc2)cs1`, the Ki in assay [1] was determined as 1740 µM.

Regarding `CSc1sc(C(=N)N)cc1-c1nc(-c2ccc(O)c(C)c2)cs1`, affinity in assay [1] was put at a Ki of 44 µM.
